Experimental data reported in the NIST ThermoML archive (doi:10.1016/j.jct.2017.10.012).
Numbers after ± are expanded uncertainties.

Conditions: Liquid, Vibrating tube method

CCCC[N+](C)(C)C.O=S(=O)([N-]S(=O)(=O)C(F)(F)F)C(F)(F)F [butyltrimethylammonium bis(trifluoromethylsulfonyl)imide]
mass density (278.15 K, 100 kPa): 1411.9 ± 0.8 kg/m3
mass density (278.15 K, 101.33 kPa): 1411.6 ± 0.6 kg/m3
mass density (278.15 K, 1000 kPa): 1412.6 ± 0.8 kg/m3
mass density (278.15 K, 10000 kPa): 1419 ± 0.9 kg/m3
mass density (278.15 K, 20000 kPa): 1425.6 ± 1 kg/m3
mass density (278.15 K, 40000 kPa): 1438.3 ± 1.3 kg/m3
mass density (278.15 K, 60000 kPa): 1450 ± 1.6 kg/m3
mass density (278.15 K, 80000 kPa): 1460.7 ± 1.9 kg/m3
mass density (278.15 K, 100000 kPa): 1470.6 ± 2.3 kg/m3
mass density (278.15 K, 120000 kPa): 1480.6 ± 2.7 kg/m3
mass density (279.15 K, 101.33 kPa): 1410.6 ± 0.6 kg/m3
mass density (280.15 K, 101.33 kPa): 1409.6 ± 0.6 kg/m3
mass density (281.15 K, 101.33 kPa): 1408.6 ± 0.6 kg/m3
mass density (282.15 K, 101.33 kPa): 1407.7 ± 0.6 kg/m3
mass density (283.15 K, 101.33 kPa): 1406.7 ± 0.6 kg/m3
mass density (284.15 K, 101.33 kPa): 1405.7 ± 0.6 kg/m3
mass density (285.15 K, 101.33 kPa): 1404.8 ± 0.6 kg/m3
mass density (286.15 K, 101.33 kPa): 1403.8 ± 0.6 kg/m3
mass density (287.15 K, 101.33 kPa): 1402.9 ± 0.6 kg/m3
mass density (288.15 K, 101.33 kPa): 1402 ± 0.6 kg/m3
mass density (289.15 K, 101.33 kPa): 1401 ± 0.6 kg/m3
mass density (290.15 K, 101.33 kPa): 1400.1 ± 0.6 kg/m3
mass density (291.15 K, 101.33 kPa): 1399.2 ± 0.6 kg/m3
mass density (292.15 K, 101.33 kPa): 1398.3 ± 0.6 kg/m3
mass density (293.15 K, 101.33 kPa): 1397.4 ± 0.6 kg/m3
mass density (294.15 K, 101.33 kPa): 1396.5 ± 0.6 kg/m3
mass density (295.15 K, 101.33 kPa): 1395.6 ± 0.6 kg/m3
mass density (296.15 K, 101.33 kPa): 1394.7 ± 0.6 kg/m3
mass density (297.15 K, 101.33 kPa): 1393.8 ± 0.6 kg/m3
mass density (298.15 K, 100 kPa): 1394 ± 0.8 kg/m3
mass density (298.15 K, 101.33 kPa): 1392.9 ± 0.6 kg/m3
mass density (298.15 K, 1000 kPa): 1394.7 ± 0.8 kg/m3
mass density (298.15 K, 10000 kPa): 1401.2 ± 0.9 kg/m3
mass density (298.15 K, 20000 kPa): 1408.2 ± 1 kg/m3
mass density (298.15 K, 40000 kPa): 1421.2 ± 1.2 kg/m3
mass density (298.15 K, 60000 kPa): 1433.1 ± 1.5 kg/m3
mass density (298.15 K, 80000 kPa): 1444.1 ± 1.8 kg/m3
mass density (298.15 K, 100000 kPa): 1454.5 ± 2.2 kg/m3
mass density (298.15 K, 120000 kPa): 1464.3 ± 2.6 kg/m3
mass density (299.15 K, 101.33 kPa): 1392 ± 0.6 kg/m3
mass density (300.15 K, 101.33 kPa): 1391.1 ± 0.6 kg/m3
mass density (301.15 K, 101.33 kPa): 1390.2 ± 0.6 kg/m3
mass density (302.15 K, 101.33 kPa): 1389.4 ± 0.6 kg/m3
mass density (303.15 K, 101.33 kPa): 1388.5 ± 0.6 kg/m3
mass density (304.15 K, 101.33 kPa): 1387.6 ± 0.6 kg/m3
mass density (305.15 K, 101.33 kPa): 1386.7 ± 0.6 kg/m3
mass density (306.15 K, 101.33 kPa): 1385.8 ± 0.6 kg/m3
mass density (307.15 K, 101.33 kPa): 1385 ± 0.6 kg/m3
mass density (308.15 K, 101.33 kPa): 1384.1 ± 0.6 kg/m3
mass density (309.15 K, 101.33 kPa): 1383.2 ± 0.6 kg/m3
mass density (310.15 K, 101.33 kPa): 1382.4 ± 0.6 kg/m3
mass density (311.15 K, 101.33 kPa): 1381.5 ± 0.6 kg/m3
mass density (312.15 K, 101.33 kPa): 1380.6 ± 0.6 kg/m3
mass density (313.15 K, 100 kPa): 1380.9 ± 0.8 kg/m3
mass density (313.15 K, 101.33 kPa): 1379.7 ± 0.6 kg/m3
mass density (313.15 K, 1000 kPa): 1381.6 ± 0.8 kg/m3
mass density (313.15 K, 10000 kPa): 1388.4 ± 0.9 kg/m3
mass density (313.15 K, 20000 kPa): 1395.7 ± 1 kg/m3
mass density (313.15 K, 40000 kPa): 1409.2 ± 1.2 kg/m3
mass density (313.15 K, 60000 kPa): 1421.7 ± 1.5 kg/m3
mass density (313.15 K, 80000 kPa): 1433 ± 1.8 kg/m3
mass density (313.15 K, 100000 kPa): 1443.7 ± 2.2 kg/m3
mass density (313.15 K, 120000 kPa): 1453.7 ± 2.6 kg/m3
mass density (314.15 K, 101.33 kPa): 1378.9 ± 0.6 kg/m3
mass density (315.15 K, 101.33 kPa): 1378 ± 0.6 kg/m3
mass density (316.15 K, 101.33 kPa): 1377.1 ± 0.6 kg/m3
mass density (317.15 K, 101.33 kPa): 1376.3 ± 0.6 kg/m3
mass density (318.15 K, 101.33 kPa): 1375.4 ± 0.6 kg/m3
mass density (319.15 K, 101.33 kPa): 1374.5 ± 0.6 kg/m3
mass density (320.15 K, 101.33 kPa): 1373.7 ± 0.6 kg/m3
mass density (321.15 K, 101.33 kPa): 1372.8 ± 0.6 kg/m3
mass density (322.15 K, 101.33 kPa): 1372 ± 0.6 kg/m3
mass density (323.15 K, 101.33 kPa): 1371.1 ± 0.6 kg/m3
mass density (324.15 K, 101.33 kPa): 1370.3 ± 0.6 kg/m3
mass density (325.15 K, 101.33 kPa): 1369.4 ± 0.6 kg/m3
mass density (326.15 K, 101.33 kPa): 1368.6 ± 0.6 kg/m3
mass density (327.15 K, 101.33 kPa): 1367.7 ± 0.6 kg/m3
mass density (328.15 K, 101.33 kPa): 1366.8 ± 0.6 kg/m3
mass density (329.15 K, 101.33 kPa): 1366 ± 0.6 kg/m3
mass density (330.15 K, 101.33 kPa): 1365.1 ± 0.6 kg/m3
mass density (331.15 K, 101.33 kPa): 1364.3 ± 0.6 kg/m3
mass density (332.15 K, 101.33 kPa): 1363.4 ± 0.6 kg/m3
mass density (333.15 K, 100 kPa): 1363.4 ± 0.8 kg/m3
mass density (333.15 K, 101.33 kPa): 1362.6 ± 0.6 kg/m3
mass density (333.15 K, 1000 kPa): 1364.2 ± 0.8 kg/m3
mass density (333.15 K, 10000 kPa): 1371.6 ± 0.9 kg/m3
mass density (333.15 K, 20000 kPa): 1379.3 ± 1 kg/m3
mass density (333.15 K, 40000 kPa): 1393.4 ± 1.2 kg/m3
mass density (333.15 K, 60000 kPa): 1406.4 ± 1.4 kg/m3
mass density (333.15 K, 80000 kPa): 1418.3 ± 1.7 kg/m3
mass density (333.15 K, 100000 kPa): 1429.5 ± 2.1 kg/m3
mass density (333.15 K, 120000 kPa): 1439.8 ± 2.5 kg/m3
mass density (334.15 K, 101.33 kPa): 1361.7 ± 0.6 kg/m3
mass density (335.15 K, 101.33 kPa): 1360.9 ± 0.6 kg/m3
mass density (336.15 K, 101.33 kPa): 1360 ± 0.6 kg/m3
mass density (337.15 K, 101.33 kPa): 1359.2 ± 0.6 kg/m3
mass density (338.15 K, 101.33 kPa): 1358.3 ± 0.6 kg/m3
mass density (339.15 K, 101.33 kPa): 1357.5 ± 0.6 kg/m3
mass density (340.15 K, 101.33 kPa): 1356.7 ± 0.6 kg/m3
mass density (341.15 K, 101.33 kPa): 1355.9 ± 0.6 kg/m3
mass density (342.15 K, 101.33 kPa): 1355 ± 0.6 kg/m3
mass density (343.15 K, 101.33 kPa): 1354.1 ± 0.6 kg/m3
mass density (344.15 K, 101.33 kPa): 1353.3 ± 0.6 kg/m3
mass density (345.15 K, 101.33 kPa): 1352.6 ± 0.6 kg/m3
mass density (346.15 K, 101.33 kPa): 1351.6 ± 0.6 kg/m3
mass density (347.15 K, 101.33 kPa): 1350.8 ± 0.6 kg/m3
mass density (348.15 K, 100 kPa): 1350.3 ± 0.8 kg/m3
mass density (348.15 K, 101.33 kPa): 1349.9 ± 0.6 kg/m3
mass density (348.15 K, 1000 kPa): 1351 ± 0.8 kg/m3
mass density (348.15 K, 10000 kPa): 1358.7 ± 0.9 kg/m3
mass density (348.15 K, 20000 kPa): 1366.7 ± 0.9 kg/m3
mass density (348.15 K, 40000 kPa): 1381.5 ± 1.2 kg/m3
mass density (348.15 K, 60000 kPa): 1394.9 ± 1.4 kg/m3
mass density (348.15 K, 80000 kPa): 1407.1 ± 1.7 kg/m3
mass density (348.15 K, 100000 kPa): 1418.6 ± 2.1 kg/m3
mass density (348.15 K, 120000 kPa): 1429.3 ± 2.5 kg/m3
mass density (349.15 K, 101.33 kPa): 1349.2 ± 0.6 kg/m3
mass density (350.15 K, 101.33 kPa): 1348.3 ± 0.6 kg/m3
mass density (351.15 K, 101.33 kPa): 1347.4 ± 0.6 kg/m3
mass density (352.15 K, 101.33 kPa): 1346.6 ± 0.6 kg/m3
mass density (353.15 K, 101.33 kPa): 1345.7 ± 0.6 kg/m3
mass density (354.15 K, 101.33 kPa): 1344.9 ± 0.6 kg/m3
mass density (355.15 K, 101.33 kPa): 1344 ± 0.6 kg/m3
mass density (356.15 K, 101.33 kPa): 1343.2 ± 0.6 kg/m3
mass density (357.15 K, 101.33 kPa): 1342.3 ± 0.6 kg/m3
mass density (358.15 K, 101.33 kPa): 1341.5 ± 0.6 kg/m3
mass density (359.15 K, 101.33 kPa): 1340.6 ± 0.6 kg/m3
mass density (360.15 K, 101.33 kPa): 1339.8 ± 0.6 kg/m3
mass density (361.15 K, 101.33 kPa): 1338.9 ± 0.6 kg/m3
mass density (362.15 K, 101.33 kPa): 1338 ± 0.6 kg/m3
mass density (363.15 K, 101.33 kPa): 1337 ± 0.6 kg/m3
mass density (364.15 K, 101.33 kPa): 1336.1 ± 0.6 kg/m3
mass density (365.15 K, 101.33 kPa): 1335.2 ± 0.6 kg/m3
mass density (366.15 K, 101.33 kPa): 1334.3 ± 0.6 kg/m3
mass density (367.15 K, 101.33 kPa): 1333.4 ± 0.6 kg/m3
mass density (368.15 K, 101.33 kPa): 1332.5 ± 0.6 kg/m3
mass density (369.15 K, 101.33 kPa): 1331.7 ± 0.6 kg/m3
mass density (370.15 K, 101.33 kPa): 1330.9 ± 0.6 kg/m3
mass density (371.15 K, 101.33 kPa): 1330.1 ± 0.6 kg/m3
mass density (372.15 K, 101.33 kPa): 1329.2 ± 0.6 kg/m3
mass density (373.15 K, 100 kPa): 1329.5 ± 5 kg/m3
mass density (373.15 K, 101.33 kPa): 1328.4 ± 0.6 kg/m3
mass density (373.15 K, 1000 kPa): 1329.7 ± 3 kg/m3
mass density (373.15 K, 10000 kPa): 1338 ± 3 kg/m3
mass density (373.15 K, 20000 kPa): 1346.6 ± 3.1 kg/m3
mass density (373.15 K, 40000 kPa): 1362.3 ± 3.1 kg/m3
mass density (373.15 K, 60000 kPa): 1376.5 ± 3.2 kg/m3
mass density (373.15 K, 80000 kPa): 1389.5 ± 3.4 kg/m3
mass density (373.15 K, 100000 kPa): 1401.5 ± 3.5 kg/m3
mass density (373.15 K, 120000 kPa): 1412.7 ± 3.7 kg/m3
mass density (398.15 K, 100 kPa): 1309.1 ± 5 kg/m3
mass density (398.15 K, 1000 kPa): 1308.9 ± 3 kg/m3
mass density (398.15 K, 10000 kPa): 1317.8 ± 3 kg/m3
mass density (398.15 K, 20000 kPa): 1327 ± 3.1 kg/m3
mass density (398.15 K, 40000 kPa): 1343.7 ± 3.1 kg/m3
mass density (398.15 K, 60000 kPa): 1358.6 ± 3.2 kg/m3
mass density (398.15 K, 80000 kPa): 1372.3 ± 3.3 kg/m3
mass density (398.15 K, 100000 kPa): 1384.8 ± 3.5 kg/m3
mass density (398.15 K, 120000 kPa): 1396.6 ± 3.6 kg/m3
